Where two headings read alike, the source gives them in different places.
Assays:
[1] = biological target: T1, soluble guanylate cyclase (sGC) (Homo sapiens (Human), UniProt Q02108+Q02153); test: sGC-HEK-cGMP assay run with SNP incubation (HEK WC assay); assay type: cell-based; settings: for Emax at 30 µM: read-out: HEK WC Assay (% Emax at 30 μM/with 10 uM SNP); for Emax at 10 µM: read-out: HEK WC Assay (% Emax at 10 μM/with 10 uM SNP); for HEK WC Assay (fold increase at 30 μM in the presence of 10 μM SNP): compound at 30 μM; for EC50: in the presence of 10 uM SNP
In short: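 HEK293 cells with endogenous sGC were pretreated with 0.5 mM IBMX for 15 min at 37 °C, then exposed to test compound plus sodium nitroprusside for 10 min at 37 °C.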

[2] = biological target: T2, Human soluble guanylate cyclase enzyme (hsGC) (Homo sapiens (Human), UniProt Q02108+Q02153); test: Purified human sGC enzyme activity assay; assay type: biochemical; settings: 30 μM compound, without the addition of SNP
In short: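 Purified human sGC (5 ng) incubated 30 min at 37° C with compound at 10 or 30 μM final in pH 8.0 Tris with 300 μM GTP, 2 mM MgCl2, 2 mM DTT and 1 mM IBMX, then stopped with cold methanol. cGMP quantified against a standard curve. Specific activity (nmol cGMP/mg sGC/min) expressed as fold-change over DMSO control.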

Thoracic aortic rings = test: Alternative thoracic aortic rings assay (Example 19b; resting tension as 100% inhibition); parameters: species or system rat; settings: Rattus norvegicus, Table 10A; for inhibition at 1 µM: read-out: Percent Relaxation at 1 μM; for inhibition at 3 µM: read-out: Percent Relaxation at 3 μM; for inhibition at 10 µM: read-out: Percent Relaxation at 10 μM; for EC50: read-out: Aortic Ring EC50
In short: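 Aortic rings (~2 mm) from male Sprague-Dawley rats (275-299 g) held at 1.0 g resting tension in Krebs-Henseleit at 37 °C under 95% O2/5% CO2, then precontracted with 100 ng/mL phenylephrine. Compounds in DMSO added cumulatively; relaxation recorded by force transducer and EC50 taken from concentration-response curves.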

[3] = biological target: T2, Human soluble guanylate cyclase enzyme (hsGC); test: Purified human sGC enzyme synergy assay in the presence of 1 μM sodium nitroprusside (SNP); assay type: biochemical; settings: 30 μM compound, with the addition of SNP
In short: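 Purified human sGC (5 ng) incubated 30 min at 37 °C with compounds at 10 or 30 μM, 1 μM sodium nitroprusside, 300 μM GTP and 1 mM IBMX in Tris pH 8.0 with MgCl2/DTT. cGMP quantified against a standard curve, and specific activity expressed as fold-change over DMSO control.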

[4] = biological target: T1, soluble guanylate cyclase (sGC); test: sGC-HEK-cGMP assay run in the absence of SNP (HEK WC assay); assay type: cell-based; settings: compound at 30 μM, absence of SNP
In short: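 HEK293 cells with endogenous sGC, preincubated 15 min at 37° C with 0.5 mM IBMX, then exposed to test compound 10 min at 37° C without SNP. Cells lysed in 0.1 M HCl; cGMP quantified by LC/MS against a standard curve. EC50 from concentration-response curves.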

[5] = read-out: HEK WC Assay (% Emax at 10 μM with 10 uM SNP)
[6] = read-out: HEK WC Assay (% Emax at 30 μM with 10 uM SNP)
[7] = read-out: HEK WC Assay in the presence of 10 uM SNP EC50

T1 sequence (Q02153 whole entry): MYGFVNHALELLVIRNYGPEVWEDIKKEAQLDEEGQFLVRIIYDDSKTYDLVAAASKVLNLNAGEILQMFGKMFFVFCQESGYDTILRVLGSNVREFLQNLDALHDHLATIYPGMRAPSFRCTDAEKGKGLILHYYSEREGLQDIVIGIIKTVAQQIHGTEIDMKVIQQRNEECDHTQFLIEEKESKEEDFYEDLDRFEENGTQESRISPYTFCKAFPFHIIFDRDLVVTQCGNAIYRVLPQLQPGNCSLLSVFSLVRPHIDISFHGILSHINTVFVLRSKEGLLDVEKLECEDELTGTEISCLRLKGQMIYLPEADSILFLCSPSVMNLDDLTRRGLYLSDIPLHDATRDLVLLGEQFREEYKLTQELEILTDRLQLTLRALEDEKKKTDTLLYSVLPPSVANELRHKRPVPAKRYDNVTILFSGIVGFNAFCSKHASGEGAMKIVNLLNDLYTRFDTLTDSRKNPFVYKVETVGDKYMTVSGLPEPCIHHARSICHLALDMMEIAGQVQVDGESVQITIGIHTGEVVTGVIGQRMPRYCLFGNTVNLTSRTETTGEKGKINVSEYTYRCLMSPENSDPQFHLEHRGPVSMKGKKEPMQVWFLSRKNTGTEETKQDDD
T1 sequence (Q02108 whole entry): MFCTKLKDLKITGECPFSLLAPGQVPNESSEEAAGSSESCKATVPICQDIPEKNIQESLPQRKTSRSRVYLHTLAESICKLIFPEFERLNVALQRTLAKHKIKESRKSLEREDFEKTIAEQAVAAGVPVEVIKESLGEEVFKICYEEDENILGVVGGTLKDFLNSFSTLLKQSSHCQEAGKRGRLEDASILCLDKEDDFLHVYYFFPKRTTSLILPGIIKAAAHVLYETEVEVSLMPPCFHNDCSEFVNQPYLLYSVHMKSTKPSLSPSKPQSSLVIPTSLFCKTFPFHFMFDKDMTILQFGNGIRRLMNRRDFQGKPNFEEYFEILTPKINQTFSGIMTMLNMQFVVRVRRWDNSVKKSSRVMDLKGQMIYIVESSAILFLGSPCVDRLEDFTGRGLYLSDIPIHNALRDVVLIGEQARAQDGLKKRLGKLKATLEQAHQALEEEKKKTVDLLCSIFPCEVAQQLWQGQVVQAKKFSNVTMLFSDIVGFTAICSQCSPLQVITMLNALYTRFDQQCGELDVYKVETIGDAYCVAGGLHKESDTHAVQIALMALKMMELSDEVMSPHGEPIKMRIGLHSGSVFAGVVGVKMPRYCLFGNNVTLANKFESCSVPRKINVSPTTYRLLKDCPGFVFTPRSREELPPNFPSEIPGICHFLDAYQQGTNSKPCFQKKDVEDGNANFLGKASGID
T2 sequence (Q02153 whole entry): as the sequence (Q02153 whole entry) above
T2 sequence (Q02108 whole entry): as the sequence (Q02108 whole entry) above

SMILES | Emax at 30 µM [1] | sGC Enzyme (fold increase at 30 μM) [2] | inhibition at 1 µM (Thoracic aortic rings) | inhibition at 3 µM (Thoracic aortic rings) | inhibition at 10 µM (Thoracic aortic rings) | EC50 (Thoracic aortic rings) | sGC Enzyme (fold increase at 30 μM with SNP) [3] | Emax at 10 µM [1] | HEK WC Assay (fold increase at 30 μM in the presence of 10 μM SNP) [1] | Emax [1, 5] | Emax [1, 6] | HEK WC Assay (fold increase at 30 μM in the absence of SNP) [4] | EC50 [1, 7] | EC50 [1]
Fc1ccccc1Cn1nc(-c2ncccn2)cc1-c1cscn1 [Compound I-85] | 100 to 120% | C (C = 5 to <10 fold increase) | 60 to 80% | 80 to 100% | 100 to 120% | < 2000 nM | D (D = 10 to <30 fold increase) |  |  |  |  |  |  | 
Nc1ccnc(-c2cc(-c3nccs3)n(Cc3ccccc3F)n2)n1 [Compound I-86] | 60 to 80% | C (C = 5 to <10 fold increase) | 40 to 60% | 80 to 100% | 100 to 120% | < 2000 nM | D (D = 10 to <30 fold increase) | 40 to 60% |  |  |  |  |  | 
Nc1ccnc(-c2cc(-c3ncco3)n(Cc3ccccc3F)n2)n1 [Compound I-87] | 100 to 120% | D (D = 10 to <30 fold increase) | 60 to 80% | 80 to 100% | 100 to 120% | < 2000 nM | D (D = 10 to <30 fold increase) | 60 to 80% |  |  |  |  |  | 
Nc1ccnc(-c2cc(-c3cscn3)n(Cc3ccccc3F)n2)n1 [Compound I-92] | 20 to 40% | B (B = 2 to <5 fold increase) | 60 to 80% | 80 to 100% |  | < 2000 nM | D (D = 10 to <30 fold increase) | 20 to 40% |  |  |  |  |  | 
Nc1ccnc(-c2cc(-c3ccon3)n(Cc3ccccc3F)n2)n1 [Compound I-97] | 40 to 60% | D (D = 10 to <30 fold increase) | 80 to 100% | 100 to 120% | 100 to 120% | < 2000 nM | D (D = 10 to <30 fold increase) | 40 to 60% |  |  |  |  |  | 
Nc1ccnc(-c2cc(-c3cocn3)n(Cc3ccccc3F)n2)n1 [Compound I-98] | 20 to 40% | B (B = 2 to <5 fold increase) | 60 to 80% | 100 to 120% | 100 to 120% | < 2000 nM | D (D = 10 to <30 fold increase) | 20 to 40% |  |  |  |  |  | 
COC(=O)Nc1c(N)nc(-c2cc(-c3ncco3)n(Cc3ccccc3F)n2)nc1N [Compound I-99] | 40 to 60% | B (B = 2 to <5 fold increase) | 0 to 10% | 20 to 40% | 80 to 100% | < 2000 nM | C (C = 5 to <10 fold increase) | 20 to 40% |  |  |  |  |  | 
COC(=O)N(C)c1c(N)nc(-c2cc(-c3ncco3)n(Cc3ccccc3F)n2)nc1N [Compound I-100] | 40 to 60% | B (B = 2 to <5 fold increase) | 20 to 40% | 60 to 80% | 100 to 120% | < 2000 nM | C (C = 5 to <10 fold increase) | 20 to 40% |  |  |  |  |  | 
Nc1nc(-c2cc(-c3ccon3)n(Cc3ccccc3F)n2)ncc1-c1ccncc1 [Compound I-102] | 20 to 40% | B (B = 2 to <5 fold increase) | 20 to 40% | 60 to 80% | 80 to 100% | < 2000 nM | C (C = 5 to <10 fold increase) | 40 to 60% |  |  |  |  |  | 
COC(=O)N(C)c1cnc(-c2cc(-c3ccon3)n(Cc3ccccc3F)n2)nc1N [Compound I-105] | 100 to 120% | C (C = 5 to <10 fold increase) | 60 to 80% | 80 to 100% | 100 to 120% | < 2000 nM | C (C = 5 to <10 fold increase) | 80 to 100% |  |  |  |  |  | 
N#Cc1cnc(-c2cc(-c3ccon3)n(Cc3ccccc3F)n2)nc1O [Compound I-110] | 60 to 80% | B (B = 2 to <5 fold increase) | 40 to 60% | 60 to 80% | 80 to 100% | < 2000 nM | C (C = 5 to <10 fold increase) | 60 to 80% |  |  |  |  |  | 
CC(=O)Nc1cnc(-c2cc(-c3ccon3)n(Cc3ccccc3F)n2)nc1N [Compound I-112, N-(4-amino-2-(1-(2-fluorobenzyl)-5-(isoxazol-3-yl)-1H-pyrazol-3-yl)pyrimidin-5-yl)acetamide] | 80 to 100% | C (C = 5 to <10 fold increase) | 80 to 100% | > 120% | 100 to 120% | < 2000 nM | D (D = 10 to <30 fold increase) | 100 to 120% |  |  |  |  |  | 
CN(C(=O)OC(C)(C)C)c1cnc(-c2cc(-c3ccon3)n(Cc3ccccc3F)n2)nc1N [Compound I-115] | 60 to 80% | C (C = 5 to <10 fold increase) | 20 to 40% | 40 to 60% | 80 to 100% | 2000 to 4000 nM | D (D = 10 to <30 fold increase) | 80 to 100% |  |  |  |  |  | 
Nc1cc(C(F)(F)F)nc(-c2cc(-c3ccon3)n(Cc3ccccc3F)n2)n1 [Compound I-117] | 0 to 10% | A (A = no increase to <2 fold increase) |  |  |  |  | A (A = no increase to <2 fold increase) | 10 to 20% | B (B = 1 to <2 fold increase) | 10 to 20% | 0 to 10% | B (B = 1 to <2 fold increase) |  | 
C=CCOC1(c2cnc(-c3cc(-c4ccon4)n(Cc4ccccc4F)n3)nc2N)CC1 [Compound I-118, 5-(1-(allyloxy)cyclopropyl)-2-(1-(2-fluorobenzyl)-5-(isoxazol-3-yl)-1H-pyrazol-3-yl)pyrimidin-4-amine] | 40 to 60% | C (C = 5 to <10 fold increase) |  |  |  |  | D (D = 10 to <30 fold increase) | 60 to 80% | E (E = 10 to <20 fold increase) | 60 to 80% | 40 to 60% | D (D = 5 to <10 fold increase) | 60000 to 100000 nM | 
Nc1nc(-c2cc(-c3ccon3)n(Cc3ccccc3F)n2)ncc1N=C(c1ccccc1)c1ccccc1 [Compound I-123, N5-(diphenylmethylene)-2-(1-(2-fluorobenzyl)-5-(isoxazol-3-yl)-1H-pyrazol-3-yl)pyrimidine-4,5-diamine] | 20 to 40% | A (A = no increase to <2 fold increase) |  |  |  |  | B (B = 2 to <5 fold increase) | 10 to 20% | C (C = 2 to <5 fold increase) | 10 to 20% | 20 to 40% | B (B = 1 to <2 fold increase) |  | 
CC(C)(C)CC(=O)Nc1cnc(-c2cc(-c3ccon3)n(Cc3ccccc3F)n2)nc1N [Compound I-124] | 60 to 80% | D (D = 10 to <30 fold increase) |  |  |  |  | D (D = 10 to <30 fold increase) | > 120% | F (F = 20 to <30 fold increase) | 100 to 120% | 60 to 80% | E (E = 10 to <20 fold increase) |  | < 20000 nM
Nc1nc(-c2cc(-c3ccon3)n(Cc3ccccc3F)n2)ncc1NC(=O)OCc1ccccc1 [Compound I-125] | 80 to 100% | C (C = 5 to <10 fold increase) |  |  |  |  | D (D = 10 to <30 fold increase) | 80 to 100% | F (F = 20 to <30 fold increase) | 80 to 100% | 80 to 100% | D (D = 5 to <10 fold increase) | < 20000 nM | 

— US10189809B2, “SGC stimulators” (Ironwood Pharmaceuticals, Inc., priority 2010, dated 2019)
